In US8461174B2, “Treatment for cutaneous metastases” (3M Innovative Properties Company, priority 2004, dated 2013):

Key:
[1] = tested on: cutaneous metastasis of invasive ductal carcinoma (Her2/neu-negative); experiment: Topical treatment of cutaneous metastasis of invasive ductal carcinoma in a patient (Example 2); type: in vivo, human; settings: person two; 5% cream (ALDARA) topically five times per week for six months
Protocol: (§1) The IRM compound used in the examples is 1-(2-methylpropyl)-1H-imidazo[4,5-c]quinolin-4-amine, formulated as a 5% cream available under the tradename ALDARA (3M Co., St. Paul, Minn.).
person two with invasive ductal carcinoma (UICC stage T2, pN1, B2, cM0) that was estrogen-negative, progesterone-negative, and Her2/neu-negative was treated by mastectomy and adjuvant chemotherapy. Infraclavicular and supraclavicular recurrences were treated with γ- and telecobalt radiation, intrarterial and intravenous chemotherapy. A diffuse cutaneous lesion occurred on the scapula that, upon histological examination, contained an infiltrative ductal growth pattern (FIG. 1I).
(§2) 1-(2-methylpropyl)-1H-imidazo[4,5-c]quinolin-4-amine was administered topically five times per week for six months.

[2] = tested on: cutaneous metastasis of Her2/neu-positive breast cancer (invasive lobular tumor cells); experiment: Topical treatment of cutaneous metastasis of breast cancer in a patient (Example 1); type: in vivo, human; settings: person one
Protocol: as §1
person one with breast cancer (UICC stage pT1c, pN1b1, M0, G2, estrogen-positive, progesterone-positive) developed an axillary recurrence and osteolytic metastases (L2-4) despite axillary dissection and neoadjuvant and adjuvant chemotherapy. The recurrent tumor and metastases were treated with radiation. Nine months later, the breast cancer recurred locally (rpT1c, M1, G2, estrogen-negative, progesterone-negative, Her2/neu-positive) and was treated with trastuzumab and percutaneous radiation. An inflammatory erythema occurred on the upper back (FIG. 1A). On histology, invasive lobular tumor cells (keratin-positive, Her2/neu-positive, ICAM-1-positive) were present (FIGS. 1B-1E.
as §2

CC(C)Cn1cnc2c(N)nc3ccccc3c21 [1-(2-methylpropyl)-1H-imidazo[4,5-c]quinolin-4-amine]
skin biopsy of an affected area after the treatment period [1]: free of carcinoma cells | skin lesions upon gross examination or histological examination after the treatment period ([2]; 5% cream (ALDARA) topically five times per week for six months): no skin lesions were detected | time the patient has remained free of cutaneous metastasis ([2]; after topical treatment five times per week for six months): more than ten months
